Measured values taken from patent US11976064B2, “Toll-like receptor agonists” (Pfizer Inc., priority 2019, dated 2024).

Tested on: peripheral blood mononuclear cells (PBMCs)
Assay: IFNα release assay from peripheral blood mononuclear cells (HTRF)
Assay type: cell-based
Details: Homo sapiens, PBMC, 24 h, freshly isolated human PBMC, IFNα by HTRF, geometric mean when tested more than once
Experimental: The Examples described were tested for biological activity in functional cellular assays using HEK293 cells stably overexpressing human TLR7 or TLR8. The assays tested for the ability of each Example to stimulate secretion of interferon alpha (IFNα) in human primary blood mono nuclear cells (PBMC).
To determine the ability of each Example to induce the release of interferon alpha (IFNα) from freshly isolated peripheral blood mononuclear cells (PBMCs), a Homogeneous Time-Resolved Fluorescence (HTRF) assay was utilized. Human whole blood was collected from healthy donors via vein puncture in accordance with Pfizer protocols (Protocol No. GOHW RDP-01), approved by the Shulman Institutional Review Board. 50 ml of human venous blood sample from individual donors was heparinized by addition to a conical tube containing 714 units of Heparin Sodium Injection MDV (Fresenius Kabi, cat #70041) followed by gentle inversion of the tube several times. Blood was then transferred to a flask, the conical tube was rinsed with 40 ml of PBS containing 2 mM EDTA (PBS-EDTA), and the rinse was added to the blood flask with gently mixing. 30 ml of the diluted blood was added to 3 separate histopaque tubes (Sigma, cat #A0561), applying directly to the frit. Histopaque tubes were then spun for 15 min at 1000×g in a tabletop centrifuge. Following density separation, excess upper phase of plasma was aspirated to within ˜5 ml above the interphase and remaining plasma along with the cloudy interphase containing PBMCs were gently decanted into a new conical tube. 15 ml of PBS-EDTA was added to the histopaque tube and swirled gently to remove remaining PBMCs that adhered to the tube wall and this wash was added to the existing PBMCs in the tube. The volume of the tube was brought to 40 ml with PBS-EDTA and tubes were spun at 250×g for 12 minutes at room temperature. After aspiration of the supernatant, the pellet was gently resuspended with 10 ml of PBS-EDTA and centrifuged again at 250×g for 12 minutes. The resulting supernatant was decanted, and the pellet was resuspended in 20 ml of ACK lysing buffer (ThermoFisher, cat #A10492-01) followed by incubation at room temperature for 5 minutes. The volume of each tube was brought to 50 ml with the addition of PBS-EDTA and tubes were spun at 177×g for 12 minutes at room temperature. The PBMC pellet was again resuspended in 10 ml of PBS without EDTA and tubes were spun for a final time at 177×g for 10 minutes. The supernatant was decanted and PBMCs were resuspended in Assay Media (RPMI base media with 10% FBS heat inactivated, 2 mM Glutamax and Penicillin/Streptomycin).
Each Example was prepared for the assay using 11-point half log serial dilutions from a 2.5 mM DMSO stock solution and 400 nl was spotted into 384 well Viewplate (Perkin Elmer, cat #6007480). Positive and negative controls (previously described) were also spotted within the assay plate and were used to determine percent effect during the analysis process. PBMCs were counted and plated at a density of 100,000 cells/[…]/well; plates were covered with a prewet microclime lid to prevent evaporation and incubated for 24 hrs at 37° C. in a 5% CO2 atmosphere. At the end of the incubation, the microclime lid was removed and the plates were spun at 1000 rpm for 5 minutes. 16 μl of conditioned media from the cell plate was transferred into a separate 384 well low-volume plate (Greiner One, 784080). IFNα levels were quantitated using an HTRF® kit (Cisbio, cat #62HIFNAPEG) according to the manufacturer's instructions. The kit supplies two different specific antibodies, one labelled with D2 (acceptor) and the other labelled with cryptate (donor), and detection buffer. The antibody stocks were diluted […] in detection buffer. For one 384 well plate, 62.5 μl of D2 antibody stock and 62.5 μl of cryptate antibody stock was added to 2.375 ml of detection buffer and mixed well. […]

| Compound | EC50 [nM] |
| --- | --- |
| CCOCc1nc2c(N)nc(C)c(C)c2n1CC(CO)CO [Example 1, 2-((4-amino-2-(ethoxymethyl)-6,7-dimethyl-1H-imidazo[4,5-c]pyridin-1-yl)methyl)propane-1,3-diol] | 99 |
| CCOCc1nc2c(N)nc(C)c(C)c2n1CC(C)(CO)CO [Example 2, 2-((4-amino-2-(ethoxymethyl)-6,7-dimethyl-1H-imidazo[4,5-c]pyridin-1-yl)methyl)-2-methylpropane-1,3-diol] | 19 |
| CCOCc1nc2c(N)nc3ccccc3c2n1CC(C)(CO)CO [Example 3, 2-((4-amino-2-(ethoxymethyl)-1H-imidazo[4,5-c]quinolin-1-yl)methyl)-2-methylpropane-1,3-diol] | 7 |
| Cc1nc(N)c2nc(CC(F)(F)F)n(CC(C)(CO)CO)c2c1C [Example 8, 2-((4-amino-6,7-dimethyl-2-(2,2,2-trifluoroethyl)-1H-imidazo[4,5-c]pyridin-1-yl)methyl)-2-methylpropane-1,3-diol] | 48 |
| CCOCc1nc2c(N)nc(C)c(C)c2n1CC(CC)(CO)CO [Example 9, 2-((4-amino-2-(ethoxymethyl)-6,7-dimethyl-1H-imidazo[4,5-c]pyridin-1-yl)methyl)-2-ethylpropane-1,3-diol] | 2 |
| CCCCc1nc2c(N)nc3ccccc3c2n1CC(C)(CO)CO [Example 10, 2-((4-amino-2-butyl-1H-imidazo[4,5-c]quinolin-1-yl)methyl)-2-methylpropane-1,3-diol] | 1 |
| CCCCc1nc2c(N)nc3c(c2n1CC(C)(CO)CO)CCCC3 [Example 13, 2-((4-amino-2-butyl-6,7,8,9-tetrahydro-1H-imidazo[4,5-c]quinolin-1-yl)methyl)-2-methylpropane-1,3-diol] | 0.4 |
| CCCCc1nc2c(N)nc3c(c2n1CC(C)(CO)CO)CCC3 [Example 14, 2-((4-amino-2-butyl-7,8-dihydrocyclopenta[b]imidazo[4,5-d]pyridin-1(6H)-yl)methyl)-2-methylpropane-1,3-diol] | 7 |
| CCc1nc2c(N)nc3ccccc3c2n1CC(C)(CO)CO [Example 15, 2-((4-amino-2-ethyl-1H-imidazo[4,5-c]quinolin-1-yl)methyl)-2-methylpropane-1,3-diol] | 12 |
| CCCc1nc2c(N)nc3ccccc3c2n1CC(C)(CO)CO [Example 16, 2-((4-amino-2-propyl-1H-imidazo[4,5-c]quinolin-1-yl)methyl)-2-methylpropane-1,3-diol] | 11 |

Same assay, conditions: freshly isolated human PBMC, 24 hrs, IFNα by HTRF; geometric mean when tested more than once

| Compound | EC50 [nM] |
| --- | --- |
| CCOCc1nc2c(N)nc(C)c(C)c2n1CC(C)(CO)COC (single isomer, unassigned) [Example 6, 3-(4-amino-2-(ethoxymethyl)-6,7-dimethyl-1H-imidazo[4,5-c]pyridin-1-yl)-2-(methoxymethyl)-2-methylpropan-1-ol] | 22 |
| CCOCc1nc2c(N)nc(C)c(C)c2n1CC(C)(CO)COC (single isomer, unassigned) [Example 7, 3-(4-amino-2-(ethoxymethyl)-6,7-dimethyl-1H-imidazo[4,5-c]pyridin-1-yl)-2-(methoxymethyl)-2-methylpropan-1-ol] | 198 |
